In PMC12608320, “Insecticidal Potential of Aniba canelilla (H.B.K.) Mez Essential Oil Against Aedes aegypti: Larvicidal and Adulticidal Activities, Mechanism of Action, and Formulation Development” (Plants, 2025):
In brackets after ≈: the same amount, converted by molar mass. Several values for one entry are separate records, joined by “and”; a condition that tells them apart may be missing. Identical values can stand only once.

Assays:
Leishmania amazonensis = system: Leishmania amazonensis; design: method as in doi:10.1590/S0103-50532009000600011; conditions: cited from earlier work
[1] = design: method as in PMID 20406629; conditions: Wistar rats, 5–10 mg/kg; cited from earlier work
macrophages = system: macrophages; design: method as in doi:10.1590/S0103-50532009000600011; conditions: cited from earlier work
[2] = biological target: acetylcholinesterase from A. aegypti larvae homogenate (Aedes aegypti, UniProt Q6A2E2); test: AChE inhibition (Ellman), A. aegypti L3 larvae homogenate; type: biochemical; conditions: for inhibition at 1500 µg/mL: at 1.5 mg∙mL^−1 (1500 µg mL^−1), read-out: Inhibition Rate (%) ± SD
Protocol: (§1) A total of 250 third instar larvae (370.1 mg) and 250 adults (163.8 mg) of A. aegypti, together with 150 adults of D. melanogaster (134.6 mg), were collected. Each group was placed in a separate 50 mL Falcon tube and frozen at −20 °C to arrest metabolic activity. After freezing, 5 mL of ultrapure water were added to each tube, and the contents were mechanically homogenized on ice using an IKA Ultra-Turrax® homogenizer (model T10BS32) at speed setting 4 for 5 min. The resulting homogenates were transferred to centrifuge tubes and spun at 10,000 rpm for 5 min at 4 °C in a refrigerated centrifuge. Supernatants were carefully collected, aliquoted and stored at −20 °C for biochemical analyses performed within 24 h. After preparation, the homogenates contained 50 insects/mL (larvae) and 30 insects/mL (adult Aedes aegypti and Drosophila melanogaster). These preparations were subsequently used for acetylcholinesterase inhibition activity, total-protein quantification by the BCA method, and calculation of specific catalytic units per individual.
(§2) Percentage inhibition of AChE was determined by the standard Ellman colorimetric method, with minor adaptations. […] After a 10 min incubation at 30 °C, 20 µL of DTNB (3.0 mM) and 20 µL of acetylthiocholine iodide (10.0 mM) were added. Plates were then incubated for a further 30 min at 30 °C, and end-point absorbance was read at 405 nm and pathlength 0.62 cm on a SpectraMax® 190 microplate reader (Molecular Devices^TM, SoftMax® Pro 5; serial no. SMP500-11007-TIQG).

Aedes aegypti larvae = test: Larvicidal activity against Aedes aegypti third instar larvae; conditions: for LC50 ± SEM (LCL-UCL): L3 larvae
Protocol: Eggs of the Rockefeller strain of Aedes aegypti were hatched in filtered water, and larvae were reared under controlled conditions (28 ± 1 °C; 12 h photoperiod) until reaching the third instar (L3). […] Each test condition, including controls, was run in quadruplicate. […] Formulations (PEOANIB, PNFTANE, PNFTENE) were applied with the same protocol used for DMSO-dissolved samples, keeping the final solvent concentration at 1% (v/v) of the total water volume.
Negative controls contained either DMSO (200 µL) alone or blank nanomicelles (NBr) at a volume matching the highest concentration tested, whereas the positive control comprised temephos at 1 µg mL^−1. After 14 days of preparation of the formulation, an activity confirmation test was performed at fixed concentrations of PNFTANE (70 ppm) and PNFTENE (5 ppm) formulations. The assays were performed in quadruplicate.

Aedes aegypti females = test: Adulticidal bottle bioassay (WHO/CDC) against Aedes aegypti females; type: in vivo; conditions: preliminary tests
Protocol: A. aegypti colony was maintained at 26 ± 1 °C, 80 ± 5% relative humidity, and a 12 h light–dark cycle. […] Glass bottles (295 mL) were coated with 1 mL of essential oil solution in analytical-grade acetone. Bottles were left open for 10 min to allow complete solvent evaporation, then acclimated for 1 h with the cap removed. Each bottle received 15–25 unfed adult female A. aegypti and was exposed to 200–50 ppm of the test compound. Deltamethrin (K-Othrine®) at 10 ppm served as the positive control, and acetone-treated bottles as the negative control. Assays were conducted in quadruplicate, with mortality recorded at 15 min intervals over 90 min of continuous exposure. After 90 min, mosquitoes were gently transferred to 500 mL cylindrical paper containers covered with nylon mesh and kept under colony conditions (26 °C, 80% RH, 12 h photoperiod) for knockdown assessment 24 h post-exposure.

[3] = biological target: T1, Acetylcholinesterase (AChE) from Electrophorus electricus (Electrophorus electricus, UniProt O42275); test: AChE inhibition (Ellman), commercial enzyme; type: biochemical; conditions: for IC50: commercial enzyme 0.15 U mL^−1
T1 construct: purchased C3389-2KU
Protocol: as §2

[4] = biological target: T2, acetylcholinesterase from D. melanogaster adults homogenate (Drosophila melanogaster, UniProt P07140); test: AChE inhibition (Ellman), D. melanogaster adult homogenate; type: biochemical; conditions: for inhibition at 1500 µg/mL: at 1.5 mg∙mL^−1 (1500 µg mL^−1), read-out: Inhibition Rate (%) ± SD
T2 construct: from tissue; host or cells: whole-body homogenate supernatant of adult D. melanogaster (laboratory colony)
Protocol: as §1, §2

[5] = biological target: acetylcholinesterase from A. aegypti adults homogenate (Aedes aegypti, UniProt Q6A2E2); test: AChE inhibition (Ellman), A. aegypti adult homogenate; type: biochemical; conditions: for inhibition at 1500 µg/mL: at 1.5 mg∙mL^−1 (1500 µg mL^−1), read-out: Inhibition Rate (%) ± SD
Protocol: as §1, §2

Trypanosoma evansi = system: Trypanosoma evansi; design: method as in PMID 27988226; conditions: at 0.5–2.0%; cited from earlier work
Artemia salina nauplii = test: Toxicity test on Artemia salina nauplii (non-target); type: in vivo; conditions: 24 h, metanauplii
Protocol: Toxicity assays with Artemia salina followed the procedure of Meyer and collaborators with adaptations like those of [86, 107]. For cyst hatching, 25 mg of eggs were placed in a cuboid-glass vessel containing 600 mL of artificial seawater (38 g L^−1 in distilled water) and incubated at 28–30 °C under continuous illumination from a 40 W incandescent lamp. After 24 h, the nauplii (first larval stage) were transferred to fresh saline and reared for an additional 24 h under the same conditions to obtain metanauplii (second larval stage), which were used in the bioassays. Ten metanauplii were exposed to 10 mL of saline containing the test samples dissolved in DMSO. […] After dosing, organisms were maintained at 28–30 °C under artificial light for 24 h. Mortality defined as immobility or sinking to the bottom was recorded, and LC50 values were calculated for each sample. All experiments were performed in triplicate with independent replicates under identical conditions to ensure reproducibility.

Artemia salina = conditions: cited from earlier work
A. aegypti = conditions: cited from earlier work

O=[N+]([O-])CCc1ccccc1 [NFTANE, 1-Nitro-2-phenylethane]
IC50 (Leishmania amazonensis): 40 µg/mL (≈ 265 µM) | effect on blood pressure [1]: significantly lowering blood pressure | fold less cytotoxic to macrophages than pentamidine (macrophages): approximately 2.5 fold | inhibition at 1500 µg/mL [2]: ≤ 10% | LC50 ± SEM (LCL-UCL) (Aedes aegypti larvae; 24 h exposure): 84.8 ppm and 85.8 ppm | LC50 ± SEM (LCL-UCL) (Aedes aegypti larvae; 48 h exposure): 83.6 ppm | LC50 (Aedes aegypti larvae; exposure time not given): 84–87 ppm | adulticidal effects compared with EOANIB (Aedes aegypti females): comparable adulticidal effects to EOANIB | Slope ± SEM [3]: 1.175 ± 0.066 | IC50 [3]: 1250 µM | inhibition at 1500 µg/mL [4]: ≤ 10% | inhibition at 1500 µg/mL [5]: ≤ 10% | activity against Trypanosoma evansi (Trypanosoma evansi): shows activity

O=[N+]([O-])C=Cc1ccccc1 [NFTENE, 1-Nitro-2-phenylethene]
LC50 ± SEM (CI) (Artemia salina nauplii): 1.9 ppm | Slope ± SEM [2]: 0.72 ± 0.06 | inhibition at 25 µg/mL ([2]; 25 μg.mL^−1): 15.5% | inhibition at 50 µg/mL ([2]; 50 μg.mL^−1): 14.9% | inhibition at 100 µg/mL ([2]; 100 μg.mL^−1): 23.1% | inhibition at 250 µg/mL ([2]; 250 μg.mL^−1): 26.8% | inhibition at 500 µg/mL ([2]; 500 μg.mL^−1): 38% | inhibition at 1000 µg/mL ([2]; 1000 μg.mL^−1): 57.1% | inhibition at 1500 µg/mL [2]: 71.8 ± 2.21% | LC50 ± SEM (LCL-UCL) (Aedes aegypti larvae; 24 h exposure): 10.9 ppm | LC50 ± SEM (LCL-UCL) (Aedes aegypti larvae; 48 h exposure): 7.7 ppm | adult mortality (Aedes aegypti females; 100 ppm): no adult mortality | Slope ± SEM [3]: 1.283 ± 0.094 | IC50 [3]: 998 µM | IC50 [4]: 21000 µM | Slope ± SEM [4]: 2.02 ± 0.20 | inhibition at 500 µg/mL ([4]; 500 μg.mL^−1): 2.4% | inhibition at 1000 µg/mL ([4]; 1000 μg.mL^−1): 9.1% | inhibition at 1500 µg/mL [4]: 18.4 ± 2.11% | Slope ± SEM [5]: 0.86 ± 0.07 | inhibition at 100 µg/mL ([5]; 100 μg.mL^−1): 4.5% | inhibition at 250 µg/mL ([5]; 250 μg.mL^−1): 11.2% | inhibition at 500 µg/mL ([5]; 500 μg.mL^−1): 15.1% | inhibition at 1000 µg/mL ([5]; 1000 μg.mL^−1): 26.6% | inhibition at 1500 µg/mL [5]: 34 ± 2.18%

COP(=S)(OC)Oc1ccc(Sc2ccc(OP(=S)(OC)OC)cc2)cc1 [Temephos, reference compound]
mortality at 1 ppm (Aedes aegypti larvae; Aedes aegypti, read-out: larval mortality): 100%

CCOP(=S)(OCC)Oc1nc(Cl)c(Cl)cc1Cl [chlorpyrifos]
LC50 (Artemia salina): 0.38 ppm

N=C(N)c1ccc(OCCCCCOc2ccc(C(=N)N)cc2)cc1 [pentamidine, reference compound]
IC50 (Leishmania amazonensis): 4.8 µg/mL (≈ 14.1 µM)

CCCSP(=O)(OCC)Oc1ccc(Br)cc1Cl (centres unmarked) [profenofos]
LC50 (Artemia salina): 7.71 ppm

CC1=CCC2CC1C2(C)C (stereo not drawn) [α-pinene]
LC50 (adulticidal activity of minor constituents) (A. aegypti): 17.3–56.5 ppm

C=C1CC/C=C(\C)CC[C@@H]2[C@@H]1CC2(C)C [β-caryophyllene]
LC50 (adulticidal activity of minor constituents) (A. aegypti): 26 ppm
